Tests used:
[1] = Inhibition of HRAS […] mutant (unknown origin) expressed in mouse NIH3T3 cells assessed as inhibition of post-translational modification processing; type: cell-based, Homo sapiens
[2] = target: GTPase KRas (Homo sapiens, UniProt P01116, G12V); experiment: Inhibition of KRAS G12V mutant (unknown origin) expressed in mouse NIH3T3 cells assessed as inhibition of post-translational modification processing; type: cell-based
[3] = Competitive binding of mammalian GGTase-1 expressed in Sf9 cells assessed as inhibition of 3H-GGPP binding to RAS using Ras-CVLL as substrate incubated for 10 mins; parameters: species or system Mammalia
[4] = Inhibition of mammalian GGTase-1 expressed in Sf9 cells using wildtype His-tagged RAS-CVLL as substrate assessed as inhibition of substrate plasma membrane localisation; type: cell membranes, Mammalia
[5] = Binding affinity to human FPTase assessed as inhibition constant
[6] = tested on: HCT-116; experiment: Antitumor activity against human HCT-116 cells xenografted in BALB/c nude mouse assessed as reduction in tumor size at 100 mg/kg measured twice a week for 21 days relative to control; type: functional; parameters: scale not given: the % may be the effect or the level left; settings: time 21 day
[7] = tested on: HT-1080; experiment: Antitumor activity against human HT-1080 cells xenografted in BALB/c nude mouse assessed as reduction in tumor size at 100 mg/kg measured twice a week for 21 days relative to control; type: functional; parameters: scale not given: the % may be the effect or the level left; settings: time 21 day
[8] = Cmax in cynomolgus monkey; type: ADME, Macaca fascicularis; settings: in vivo
[9] = AUC in cynomolgus monkey; type: ADME, Macaca fascicularis; settings: in vivo
[10] = tested on: NIH3T3; experiment: Antitumor activity against mouse NIH3T3 cells transfected with KRAS4B xenografted nude mouse assessed as inhibition of tumor growth at 35 mg/kg, ip administered in the presence of FTI-276 relative to control; type: functional; parameters: scale not given: the % may be the effect or the level left
[11] = tested on: NIH3T3; experiment: Antitumor activity against mouse NIH3T3 cells transfected with H-Ras CVLS xenografted nude mouse assessed as inhibition of tumor growth at 70 mg/kg, ip administered once daily relative to control; type: functional; parameters: scale not given: the % may be the effect or the level left
[12] = tested on: Calu-1; experiment: Antitumor activity against human Calu-1 cells transfected with KRAS mutant xenografted nude mouse assessed as inhibition of tumor growth at 70 mg/kg, ip administrated once daily measure for 40 to 80 days relative to control; type: functional; parameters: scale not given: the % may be the effect or the level left; settings: time 40-80 day
[13] = Inhibition of GDP-tagged human RAS (1 to 166 residue) incubated for 20 mins by using Centricon-10 micro concentrators analysis
[14] = tested on: Capan-2; experiment: Antiproliferative activity against human Capan-2 cells harboring KRAS 12 mutation assessed as inhibition of cell growth incubated for 4 to 7 days; type: functional, cell-based
[15] = Inhibition of human FPTase using K-RasB peptide as a substrate assessed as inhibition of substrate farnesylation
[16] = tested on: NCI-H441; experiment: Antiproliferative activity against human NCI-H441 cells harboring KRAS 12 mutation assessed as inhibition of cell growth incubated for 4 to 7 days; type: functional, cell-based
[17] = tested on: SU.86.86; experiment: Antiproliferative activity against human SU-86-86 cells harboring KRAS 12 mutation assessed as inhibition of cell growth incubated for 4 to 7 days; type: functional, cell-based
[18] = Competitive inhibition of human FPTase using K-RasB peptide as a substrate assessed as inhibition constant by Scintillation proximity assay
[19] = tested on: HT1197; experiment: Antiproliferative activity against human HT1197 cells harboring HRAS 61 mutation assessed as inhibition of cell growth incubated for 4 to 7 days; type: functional, cell-based
[20] = tested on: MCF-10A; experiment: Antiproliferative activity against human MCF-10A cells harboring HRAS mutant incubated for 48 hrs by MTT assay; type: functional, cell-based
[21] = tested on: MDA-MB-231; experiment: Antiproliferative activity against human MDA-MB-231 cells harboring HRAS mutant incubated for 48 hrs by MTT assay; type: functional, cell-based; settings: MDA-MB-231, 48 h
[22] = tested on: NCI-H929; experiment: Induction of apoptosis in human NCI-H929 cells harboring NRAS mutant assessed as reduction in cell viability measured after 48 hrs by Annexin V-FITC staining based flow cytometry analysis; type: functional
[23] = Antiproliferative activity against human Hs578Bst cells harboring HRAS mutant incubated for 48 hrs by MTT assay; type: functional, cell-based
[24] = Induction of apoptosis in human U266B cells harboring wild type RAS mutant assessed as reduction in cell viability measured after 48 hrs by Annexin V-FITC staining based flow cytometry analysis; type: functional
[25] = tested on: RPMI-8226; experiment: Induction of apoptosis in human RPMI-8226 cells harboring KRAS mutant assessed as reduction in cell viability measured after 48 hrs by Annexin V-FITC staining based flow cytometry analysis; type: functional; settings: RPMI-8226, 48 h
[26] = tested on: HT-29; experiment: Cytotoxicity against human HT-29 cells assessed as cell growth inhibition after 72 hrs in presence of doxorubicin by MTT assay; type: functional, cell-based; settings: HT-29, 72 h
[27] = Antiproliferative activity against human cancer cell lines harboring wild type RAS mutation assessed as reduction in cell viability; type: functional, cell-based
[28] = Antiproliferative activity against human cancer cell lines harboring KRAS mutation assessed as reduction in cell viability; type: functional, cell-based
[29] = tested on: A549; experiment: Cytotoxicity against human A549 cells assessed as cell growth inhibition after 72 hrs by MTT assay; type: functional, cell-based; settings: A549, 72 h
[30] = tested on: HT-29; experiment: Cytotoxicity against human HT-29 cells assessed as cell growth inhibition after 72 hrs by MTT assay; type: functional, cell-based; settings: HT-29, 72 h
[31] = tested on: A549; experiment: Cytotoxicity against human A549 cells assessed as cell growth inhibition after 72 hrs in presence of doxorubicin by MTT assay; type: functional, cell-based; settings: A549, 72 h
[32] = target: GTPase HRas (Homo sapiens, UniProt P01112); experiment: Binding affinity to HRAS (unknown origin) assessed as inhibition constant
GTPase HRas, sequence (P01112 whole entry): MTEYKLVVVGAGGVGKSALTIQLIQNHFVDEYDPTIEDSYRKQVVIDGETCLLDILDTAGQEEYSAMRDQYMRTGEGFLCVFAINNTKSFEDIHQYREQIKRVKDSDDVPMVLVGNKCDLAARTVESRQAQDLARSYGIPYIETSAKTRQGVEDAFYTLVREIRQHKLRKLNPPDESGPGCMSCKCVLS

[33] = target: GTPase NRas (Homo sapiens, UniProt P01111); experiment: Binding affinity to NRAS (unknown origin) assessed as inhibition constant
GTPase NRas, sequence (P01111 whole entry): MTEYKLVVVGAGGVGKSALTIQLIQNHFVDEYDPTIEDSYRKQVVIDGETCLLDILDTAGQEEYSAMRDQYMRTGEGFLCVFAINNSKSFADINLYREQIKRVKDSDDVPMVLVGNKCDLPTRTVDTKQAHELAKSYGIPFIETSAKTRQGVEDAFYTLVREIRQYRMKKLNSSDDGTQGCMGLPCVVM

[34] = tested on: PANC-1; experiment: Cytotoxicity against human PANC-1 cells harboring KRAS G12D mutant assessed as reduction in cell viability measured after 48 hrs by MTT assay; type: functional, cell-based; settings: PANC-1, 48 h
[35] = tested on: HCT-116; experiment: Cytotoxicity against human HCT-116 cells harboring KRAS G13D mutant assessed as reduction in cell viability measured after 48 hrs by MTT assay; type: functional, cell-based; settings: HCT-116, 48 h
[36] = tested on: NCI-H460; experiment: Cytotoxicity against human NCI-H460 cells harboring KRAS […] mutant assessed as reduction in cell viability measured after 48 hrs by MTT assay; type: functional, cell-based; settings: NCI-H460, 48 h
[37] = tested on: MDA-MB-231; experiment: Cytotoxicity against human MDA-MB-231 cells harboring KRAS G13D mutant assessed as reduction in cell viability measured after 48 hrs by MTT assay; type: functional, cell-based; settings: MDA-MB-231, 48 h
[38] = tested on: MIA PaCa-2; experiment: Cytotoxicity against human MIA PaCa-2 cells harboring KRAS G12C mutant assessed as reduction in cell viability measured after 48 hrs by MTT assay; type: functional, cell-based; settings: MIA PaCa-2, 48 h
[39] = tested on: SW-620; experiment: Cytotoxicity against human SW-620 cells harboring KRAS G12V mutant assessed as reduction in cell viability measured after 48 hrs by MTT assay; type: functional
[40] = Toxicity in nude mouse xenografted with human PANC-1 cells assessed as reduction in body weight at 40 mg/kg, po administered daily for 10 days relative to control; type: organism-based; parameters: scale not given: the % may be the effect or the level left; settings: in vivo, 240 h, time 10 day
[41] = tested on: Rat1; experiment: Inhibition of cell growth in rat Rat1 cells transfected with HRAS; type: functional, cell-based
[42] = Reduction in phosphor-ERK mutant level in tumor of human PANC-1 cells xenografted nude mouse at 40 mg/kg, po administered daily for 10 days by immunoblot analysis relative to control; type: functional; parameters: scale not given: the % may be the effect or the level left; settings: time 10 day
[43] = tested on: A549; experiment: Antitumor activity against human A549 cells xenografted in athymic nude mice assessed as inhibition of tumor growth at 50 mg/kg, po administered daily measured after 16 days relative to control; type: functional; parameters: scale not given: the % may be the effect or the level left; settings: time 16 day
[44] = tested on: A549; experiment: Antitumor activity against human A549 cells xenografted in athymic nude mouse assessed as reduction in tumour volume at 10 mg/kg, ip administered once daily measured after 24 days relative to control; type: functional; parameters: scale not given: the % may be the effect or the level left; settings: time 24 day
[45] = tested on: HT-29; experiment: Antiproliferative activity against human HT-29 cells assessed as reduction in cell growth at 100 uM measured after 7 days relative to control; type: functional; parameters: scale not given: the % may be the effect or the level left; settings: time 7 day
[46] = Reduction in KRAS-GTP mutant level in tumor of human PANC-1 cells xenografted nude mouse at 40 mg/kg, po administered daily for 10 days by immunoblot analysis relative to control; type: functional; parameters: scale not given: the % may be the effect or the level left; settings: time 10 day
[47] = Reduction in KRAS mutant level in tumor of human PANC-1 cells xenografted nude mouse at 40 mg/kg, po administered daily for 10 days by immunoblot analysis relative to control; type: functional; parameters: scale not given: the % may be the effect or the level left; settings: time 10 day
[48] = tested on: SK-MES-1; experiment: Antitumor activity against human SK-MES-1 HTB-58 cells xenografted in athymic nude mouse assessed as reduction in tumour volume at 10 mg/kg, ip administered once daily measured after 24 days; type: functional; settings: time 24 day
[49] = target: Protein farnesyltransferase subunit beta (Homo sapiens, UniProt P49356); experiment: Displacement of M [3H] farnesyl diphosphate from human PFTase expressed in Escherichia coli
Protein farnesyltransferase subunit beta, sequence (P49356 whole entry): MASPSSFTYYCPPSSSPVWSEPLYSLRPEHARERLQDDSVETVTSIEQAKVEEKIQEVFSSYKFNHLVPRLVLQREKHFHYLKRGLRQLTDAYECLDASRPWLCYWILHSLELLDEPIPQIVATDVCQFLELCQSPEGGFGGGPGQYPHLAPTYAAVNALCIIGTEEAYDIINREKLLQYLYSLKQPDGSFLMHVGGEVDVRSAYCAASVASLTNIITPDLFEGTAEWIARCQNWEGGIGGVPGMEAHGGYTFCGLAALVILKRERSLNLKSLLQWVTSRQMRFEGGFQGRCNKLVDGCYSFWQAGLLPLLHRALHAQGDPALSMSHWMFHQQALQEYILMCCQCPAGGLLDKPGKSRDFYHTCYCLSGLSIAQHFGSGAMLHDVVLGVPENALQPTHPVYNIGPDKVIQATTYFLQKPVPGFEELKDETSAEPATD

GTPase KRas, sequence (P01116 whole entry G12V): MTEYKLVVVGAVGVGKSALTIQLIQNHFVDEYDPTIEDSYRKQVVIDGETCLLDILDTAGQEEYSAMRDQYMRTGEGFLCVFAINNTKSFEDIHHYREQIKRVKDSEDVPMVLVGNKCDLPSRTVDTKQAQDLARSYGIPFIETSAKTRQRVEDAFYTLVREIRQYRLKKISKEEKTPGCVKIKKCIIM

Structure (SMILES): CSCC[C@H](CC(=O)[C@H](/C=C\[C@@H](/C=C/[C@@H](N)CS)C(C)C)Cc1ccccc1)C(=O)O
- IC50 [1]: 500 nM
- IC50 [2]: 25000 nM

Structure (SMILES): CSCCc1c(-c2cccnc2)nn(-c2ccc(Cl)c(Cl)c2)c1OCCCC(=O)N[C@@H](Cc1ccccc1)C(N)=O
- Ki [3]: 0.8 nM
- IC50 [4]: 2000 nM

Structure (SMILES): CC(C)=CCC/C(C)=C/CC/C(C)=C/C(O)P(=O)(O)O (centres undefined)
- Ki [5]: 5.2 nM

Structure (SMILES): COC(=O)[C@H](CCSC)CC(=O)[C@H](/C=C\[C@@H](/C=C/[C@@H](N)CS)C(C)C)Cc1ccccc1
- Activity [6]: 20%
- Activity [7]: 40%

Structure (SMILES): NC(=O)N1CCC(CC(=O)N2CCC([C@H]3c4ncc(Br)cc4CCc4cc(Cl)cc(Br)c43)CC2)CC1 [LONAFARNIB]
- Cmax [8]: 1900 nM
- AUC [9]: 14700 ng·h/mL

Structure (SMILES): CC(C)C[C@H](NC(=O)c1ccc(NC[C@@H](N)CS)cc1-c1cccc2ccccc12)C(=O)O
- Activity [10]: 65%
- Activity [11]: 40%
- Activity [12]: 60%

Structure (SMILES): O=S(=O)(c1ccc(NO)cc1)N1CCC(=C2c3cc(Cl)ccc3CCc3cccnc32)CC1
- IC50 [13]: 900 nM

Structure (SMILES): Cn1cncc1[C@@](N)(c1ccc(Cl)cc1)c1ccc2c(c1)c(-c1cccc(Cl)c1)cc(=O)n2C [TIPIFARNIB]
- IC50 [14]: 16 nM
- IC50 [15]: 7.9 nM
- IC50 [16]: 36 nM
- IC50 [17]: 9.5 nM
- Ki [18]: 0.5 nM
- IC50 [19]: 1.7 nM

Structure (SMILES): COC(=O)[C@H](CCSC)NC(=O)c1ccc(NC[C@H](N)CS)cc1-c1ccccc1
- IC50 [20]: 6830 nM
- IC50 [21]: 29300 nM
- IC50 [22]: 12700 nM
- IC50 [23]: 14900 nM
- IC50 [24]: 25400 nM
- IC50 [25]: 41600 nM

Structure (SMILES): N#Cc1ccc(Cn2cncc2CN2CCN(c3cccc(Cl)c3)C(=O)C2)cc1 [L-778123 FREE BASE]
- IC50 [26]: 1520 nM
- IC50 [27]: 70 nM
- IC50 [28]: 2280 nM
- IC50 [29]: 101000 nM
- IC50 [30]: 126000 nM
- IC50 [31]: 1720 nM
- Ki [32]: 1.6 nM
- Ki [33]: 0.3 nM

Structure (SMILES): CCCc1c(OCCCCCOc2coc(CO)cc2=O)ccc(Cl)c1Cl
- IC50 [34]: 17300 nM
- IC50 [35]: 8000 nM
- IC50 [36]: 15000 nM
- IC50 [37]: 7000 nM
- IC50 [38]: 10200 nM
- IC50 [39]: 37100 nM

Structure (SMILES): CC(C)=CCC/C(C)=C/CC/C(C)=C/CSc1ccccc1C(=O)O [SALIRASIB]
- Activity [40]: 67%
- EC50 [41]: 7500 nM
- Activity [42]: 84%
- Activity [43]: 53.7%
- Activity [44]: 53.8%
- Activity [45]: 85%
- Activity [46]: 64%
- Activity [47]: 50%
- Activity [48]: 0.03 cm3

Structure (SMILES): CC[C@@H](C)[C@@H](CO[C@@H](Cc1ccccc1)C(=O)CC(CCS(C)(=O)=O)C(=O)O)NC[C@@H](N)CS (some centres undefined)
- IC50 [49]: 1.8 nM

From ChEMBL document CHEMBL5149962, “Targeting KRAS mutant cancers by preventing signaling transduction in the MAPK pathway” (Eur J Med Chem, 2021)
